Assay results published in ChEMBL document CHEMBL5096225 (J Med Chem, 2022).
In brackets after ≈: the same amount, converted by molar mass.

Assay: Solubility of the compound in deionized water
Format: physicochemical

Row | solubility [µg/mL] | Compound
1 | 56 (≈ 191 µM) | O=C(c1cc(O)cc(F)c1)c1cc(O)c(O)c([N+](=O)[O-])c1
2 | 45 (≈ 165 µM) | Cc1ccc(C(=O)c2cc(O)c(O)c([N+](=O)[O-])c2)cc1 [TOLCAPONE]
